Results: patent publication US20230365592A1 (Agios Pharmaceuticals, Inc., priority 2022, published 2023)

Biological target: T1, human PAH with the R408W mutation (Homo sapiens, UniProt P00439, R408W)
T1 construct: expressed in transfected cells
T1 sequence (P00439 1-452 R408W): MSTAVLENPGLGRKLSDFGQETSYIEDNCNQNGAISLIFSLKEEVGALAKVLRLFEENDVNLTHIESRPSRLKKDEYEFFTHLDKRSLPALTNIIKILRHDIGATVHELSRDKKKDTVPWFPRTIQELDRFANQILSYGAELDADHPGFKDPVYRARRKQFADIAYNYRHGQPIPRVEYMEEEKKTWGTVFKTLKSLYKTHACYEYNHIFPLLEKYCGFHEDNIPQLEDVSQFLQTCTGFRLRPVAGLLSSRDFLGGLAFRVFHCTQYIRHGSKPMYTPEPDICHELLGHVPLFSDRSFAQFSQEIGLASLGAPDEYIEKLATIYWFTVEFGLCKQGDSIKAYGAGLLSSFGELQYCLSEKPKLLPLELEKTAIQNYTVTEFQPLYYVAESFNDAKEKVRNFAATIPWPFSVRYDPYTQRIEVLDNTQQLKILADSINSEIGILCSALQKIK
Assay: Cell Based Phenylalanine Flux Assay;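 further: after compound treatment, cells received sepiapterin plus isotope-labelled Phenylalanine for 4 hours, then labelled Tyrosine in the medium was quantified, 10-point 2-fold dilution series run in duplicate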
Settings: A375 cells expressing R408W PAH; 24 hrs with compound, then 20 µM sepiapterin and 800 µM 13C9,15N-Phenylalanine for 4 hours; 13C-Tyrosine by LC-MS; average where tested multiple times; read-out: AC50

SMILES	AC50
Cc1c(-c2ncc(C(=O)N3CCc4[nH]cnc4C3c3cc4ccccn4n3)o2)cnn1C (centres unmarked)	> 5 µM
O=C(c1cnn2cc(N3CCOCC3)ccc12)N1CCc2[nH]cnc2C1c1cc2ccccn2n1 (centres unmarked)	> 5 µM
c1ccn2nc([C@@H]3c4nc[nH]c4CCN3c3nnc(N4CCOCC4)o3)cc2c1 (single isomer, unassigned)	> 5 µM
Cc1cccc2cc(C3c4nc[nH]c4CCN3C(=O)c3nnc(C4CC(F)(F)C4)o3)nn12 (centres unmarked)	> 5 µM
COc1cccn2nc(C3c4nc[nH]c4CCN3C(=O)c3nnc(-c4ccn(C)n4)o3)cc12 (single isomer, unassigned)	> 5 µM

The next lines start with the values.

AC50	SMILES
1 to 5 µM	COc1cccn2nc(C3c4nc[nH]c4CCN3C(=O)c3nnc(C)o3)cc12 (centres unmarked)
> 5 µM	COc1cccn2nc(C3c4nc[nH]c4CCN3C(=O)c3nnc(-c4ncccn4)o3)cc12 (centres unmarked)
1 to 5 µM	CC(O)c1nnc(C(=O)N2CCc3[nH]cnc3C2c2cc3ccccn3n2)o1 (centres unmarked)
1 to 5 µM	CC(C)(F)c1nnc(C(=O)N2CCc3[nH]cnc3C2c2cc3ccccn3n2)o1 (centres unmarked)

Same assay, conditions: A375 cells expressing human PAH R408W; 24 hrs compound incubation; 13C-Tyrosine by LC-MS; average where tested multiple times; read-out: AC50

SMILES	AC50
Cc1cccn2nc([C@@H]3c4nc[nH]c4CCN3c3ccc(C(F)(F)F)cn3)cc12 [Example 1941, (S)-4-(4-methylpyrazolo[1,5-a]pyridin-2-yl)-5-(5-(trifluoromethyl)pyridin-2-yl)-4,5,6,7-tetrahydro-1H-imidazo[4,5-c]pyridine]	< 0.5 µM
Cc1cccn2nc([C@H]3c4nc[nH]c4CCN3C(=O)[C@@H]3CC3(F)F)cc12 [Example 2029, ((S)-2,2-difluorocyclopropyl)((R)-4-(4-methylpyrazolo[1,5-a]pyridin-2-yl)-1,4,6,7-tetrahydro-5H-imidazo[4,5-c]pyridin-5-yl)methanone]	> 5 µM
Fc1cccc(N2CCc3[nH]cnc3[C@@H]2c2cc3ccccn3n2)n1 [Example 2134, (R)-5-(6-fluoropyridin-2-yl)-4-(pyrazolo[1,5-a]pyridin-2-yl)-4,5,6,7-tetrahydro-1H-imidazo[4,5-c]pyridine]	1 to 5 µM
Cc1cccc2cc([C@H]3c4nc[nH]c4CCN3C(=O)c3nnc(-c4cn(C)cn4)o3)nn12 [Example 2394, (R)-(5-(1-methyl-1H-imidazol-4-yl)-1,3,4-oxadiazol-2-yl)(4-(7-methylpyrazolo[1,5-a]pyridin-2-yl)-6,7-dihydro-1H-imidazo[4,5-c]pyridin-5(4H)-yl)methanone]	> 5 µM
FC(F)Oc1cccn2nc([C@@H]3c4nc[nH]c4CCN3c3nnc(C4CC4)o3)cc12 [Example 2509, (S)-2-cyclopropyl-5-(4-(4-(difluoromethoxy)pyrazolo[1,5-a]pyridin-2-yl)-1,4,6,7-tetrahydro-5H-imidazo[4,5-c]pyridin-5-yl)-1,3,4-oxadiazole]	1 to 5 µM
Cc1cccn2nc([C@@H]3c4nc[nH]c4CCN3c3ccccc3)cc12 [Example 2311, (S)-4-(4-methylpyrazolo[1,5-a]pyridin-2-yl)-5-phenyl-4,5,6,7-tetrahydro-1H-imidazo[4,5-c]pyridine]	< 0.5 µM

More lines, now with the values ahead:

AC50	SMILES
< 0.5 µM	CCc1cccn2nc([C@@H]3c4nc[nH]c4CCN3C(=O)c3nnc(C(C)(C)F)o3)cc12 [Example 1922, (S)-(4-(4-ethylpyrazolo[1,5-a]pyridin-2-yl)-1,4,6,7-tetrahydro-5H-imidazo[4,5-c]pyridin-5-yl)(5-(2-fluoropropan-2-yl)-1,3,4-oxadiazol-2-yl)methanone]
1 to 5 µM	COc1cccn2nc([C@@H]3c4nc[nH]c4CCN3C(=O)c3nnc(-c4cnn(C(F)F)c4)o3)cc12 [Example 2446, (S)-(5-(1-(difluoromethyl)-1H-pyrazol-4-yl)-1,3,4-oxadiazol-2-yl)(4-(4-methoxypyrazolo[1,5-a]pyridin-2-yl)-6,7-dihydro-1H-imidazo[4,5-c]pyridin-5(4H)-yl)methanone]

Same assay, conditions: A375 cells expressing human R408W PAH; 24 hrs compound incubation; 13C-Tyrosine by LC-MS; average where tested multiple times; read-out: AC50

SMILES	AC50
COc1ccc(-c2nnc(C(=O)N3CCc4[nH]cnc4[C@@H]3c3cc4cccc(C(F)(F)F)n4n3)o2)cn1 [Example 1345, (R)-(5-(6-methoxypyridin-3-yl)-1,3,4-oxadiazol-2-yl)(4-(7-(trifluoromethyl)pyrazolo[1,5-a]pyridin-2-yl)-6,7-dihydro-1H-imidazo[4,5-c]pyridin-5(4H)-yl)methanone]	1 to 5 µM
C[C@H](O)c1nc(C(F)F)c(C(=O)N2CCc3[nH]cnc3[C@H]2c2cc3cccc(C(F)(F)F)n3n2)o1 [Example 1200, (4-(difluoromethyl)-2-((S)-1-hydroxyethyl)oxazol-5-yl)((S)-4-(7-(trifluoromethyl)pyrazolo[1,5-a]pyridin-2-yl)-6,7-dihydro-1H-imidazo[4,5-c]pyridin-5(4H)-yl)methanone]	0.5 to 1 µM
Cc1ncoc1C(=O)N1CCc2[nH]cnc2[C@H]1c1cc2cccc(C)n2n1 [Example 1148, (S)-(4-methyloxazol-5-yl)(4-(7-methylpyrazolo[1,5-a]pyridin-2-yl)-6,7-dihydro-1H-imidazo[4,5-c]pyridin-5(4H)-yl)methanone]	0.5 to 1 µM
CC(C)(F)c1nc(C(F)F)c(C(=O)N2CCc3[nH]cnc3[C@@H]2c2cc3ccccn3n2)o1 [Example 1254, (R)-(4-(difluoromethyl)-2-(2-fluoropropan-2-yl)oxazol-5-yl)(4-(pyrazolo[1,5-a]pyridin-2-yl)-6,7-dihydro-1H-imidazo[4,5-c]pyridin-5(4H)-yl)methanone]	1 to 5 µM
c1cnc(N2CCc3[nH]cnc3[C@@H]2c2cc3ccccn3n2)nc1 [Example 1593, (R)-4-(pyrazolo[1,5-a]pyridin-2-yl)-5-(pyrimidin-2-yl)-4,5,6,7-tetrahydro-1H-imidazo[4,5-c]pyridine]	1 to 5 µM
O=C(c1nnc(-c2cnn(C(F)(F)F)c2)o1)N1CCc2[nH]cnc2[C@H]1c1cc2cccc(Cl)n2n1 [Example 1444, (S)-(4-(7-chloropyrazolo[1,5-a]pyridin-2-yl)-6,7-dihydro-1H-imidazo[4,5-c]pyridin-5(4H)-yl)(5-(1-(trifluoromethyl)–1H-pyrazol-4-yl)-1,3,4-oxadiazol-2-yl)methanone]	< 0.5 µM
C[C@H](O)c1nc(C(F)F)c(C(=O)N2CCc3[nH]cnc3[C@@H]2c2cc3cccc(Cl)n3n2)o1 [Example 1194, ((R)-4-(7-chloropyrazolo[1,5-a]pyridin-2-yl)-6,7-dihydro-1H-imidazo[4,5-c]pyridin-5(4H)-yl)(4-(difluoromethyl)-2-((S)-1-hydroxyethyl)oxazol-5-yl)methanone]	1 to 5 µM
Cn1nc(C2CC2)nc1C(=O)N1CCc2[nH]cnc2[C@H]1c1cc2c(C(F)(F)F)cccn2n1 [Example 1081, (S)-(3-cyclopropyl-1-methyl-1H-1,2,4-triazol-5-yl)(4-(4-(trifluoromethyl)pyrazolo[1,5-a]pyridin-2-yl)-6,7-dihydro-1H-imidazo[4,5-c]pyridin-5(4H)-yl)methanone]	< 0.5 µM
Cn1cc(-c2nnc(C(=O)N3CCc4[nH]cnc4[C@H]3c3cc4ccc(Cl)cn4n3)o2)cn1 [Example 696, (S)-(4-(6-chloropyrazolo[1,5-a]pyridin-2-yl)-6,7-dihydro-1H-imidazo[4,5-c]pyridin-5(4H)-yl)(5-(1-methyl-1H-pyrazol-4-yl)-1,3,4-oxadiazol-2-yl)methanone]	< 0.5 µM

The remaining lines, values ahead:

AC50	SMILES
1 to 5 µM	Cc1cccc2cc([C@H]3c4nc[nH]c4CCN3C(=O)c3nnc(C(C)(C)C)o3)nn12 [Example 1021, (R)-(5-(tert-butyl)-1,3,4-oxadiazol-2-yl)(4-(7-methylpyrazolo[1,5-a]pyridin-2-yl)-6,7-dihydro-1H-imidazo[4,5-c]pyridin-5(4H)-yl)methanone]
1 to 5 µM	Cn1nc(Cl)nc1C(=O)N1CCc2[nH]cnc2[C@@H]1c1cc2c(Cl)cccn2n1 [Example 1055, (R)-(3-chloro-1-methyl-1H-1,2,4-triazol-5-yl)(4-(4-chloropyrazolo[1,5-a]pyridin-2-yl)-6,7-dihydro-1H-imidazo[4,5-c]pyridin-5(4H)-yl)methanone]
> 5 µM	Cc1cccn2nc([C@H]3c4nc[nH]c4CCN3C(=O)c3nnc(-c4ccccn4)o3)cc12 [Example 740, (R)-(4-(4-methylpyrazolo[1,5-a]pyridin-2-yl)-6,7-dihydro-1H-imidazo[4,5-c]pyridin-5(4H)-yl)(5-(pyridin-2-yl)-1,3,4-oxadiazol-2-yl)methanone]
0.5 to 1 µM	O=C(c1nnc(-c2cnn(C(F)(F)F)c2)o1)N1CCc2[nH]cnc2[C@H]1c1cc2c(F)cccn2n1 [Example 1540, (S)-(4-(4-fluoropyrazolo[1,5-a]pyridin-2-yl)-6,7-dihydro-1H-imidazo[4,5-c]pyridin-5(4H)-yl)(5-(1-(trifluoromethyl)-1H-pyrazol-4-yl)-1,3,4-oxadiazol-2-yl)methanone]
< 0.5 µM	O=C(c1nnc(-c2cccnc2)o1)N1CCc2[nH]cnc2[C@H]1c1cc2c(F)cccn2n1 [Example 896, (S)-(4-(4-fluoropyrazolo[1,5-a]pyridin-2-yl)-6,7-dihydro-1H-imidazo[4,5-c]pyridin-5(4H)-yl)(5-(pyridin-3-yl)-1,3,4-oxadiazol-2-yl)methanone]
> 5 µM	Cc1cccn2nc([C@H]3c4nc[nH]c4CCN3C(=O)c3nnc(-c4ccncc4)o3)cc12 [Example 851, (R)-(4-(4-methylpyrazolo[1,5-a]pyridin-2-yl)-6,7-dihydro-1H-imidazo[4,5-c]pyridin-5(4H)-yl)(5-(pyridin-4-yl)-1,3,4-oxadiazol-2-yl)methanone]
